Measurements from patent US20250163032A1, “NOVEL MOLECULES AS INHIBITORS OF DNA DAMAGE REPAIR PATHWAY” (VRise Therapeutics, Inc., priority 2023, published 2025).

Columns and labels:
[1] = system: MD-MBA-436; assay: Cell viability assay (CTG assay); type: cell-based, human; settings: Homo sapiens, 7th day
Method: Test 5: Cell Viability Assay (CTG Assay):
Growth inhibition assays was carried out using […] supplemented media. Cells were seeded at a desired concentration of 1000-6,000 cells/well in a well plate with desired number of wells. Test compounds at a desired concentration range were added after 24 hours. Growth was assessed using the Cell Titer-Glo (CTG, Cell Signaling) for measuring reduction at 7th day after the addition of test compound chemiluminescence values were read by a plate reader. Data was be analysed and percent inhibition and/or IC50 for each test compound is calculated accordingly.

[2] = molecular target: USP1/UAF1 (Homo sapiens, UniProt O94782); assay: USP1/UAF 1 assay (ubiquitin-rhodamine110 fluorometric deubiquitinase assay); type: biochemical; settings: for inhibition at 1 µM: read-out: Biochemical assay % inhibition @1 μM; for IC50: 1 nM USP1/UAF1, 150 nM Ub-Rho, read-out: Biochemical assay IC50
USP1/UAF1, sequence (O94782 whole entry): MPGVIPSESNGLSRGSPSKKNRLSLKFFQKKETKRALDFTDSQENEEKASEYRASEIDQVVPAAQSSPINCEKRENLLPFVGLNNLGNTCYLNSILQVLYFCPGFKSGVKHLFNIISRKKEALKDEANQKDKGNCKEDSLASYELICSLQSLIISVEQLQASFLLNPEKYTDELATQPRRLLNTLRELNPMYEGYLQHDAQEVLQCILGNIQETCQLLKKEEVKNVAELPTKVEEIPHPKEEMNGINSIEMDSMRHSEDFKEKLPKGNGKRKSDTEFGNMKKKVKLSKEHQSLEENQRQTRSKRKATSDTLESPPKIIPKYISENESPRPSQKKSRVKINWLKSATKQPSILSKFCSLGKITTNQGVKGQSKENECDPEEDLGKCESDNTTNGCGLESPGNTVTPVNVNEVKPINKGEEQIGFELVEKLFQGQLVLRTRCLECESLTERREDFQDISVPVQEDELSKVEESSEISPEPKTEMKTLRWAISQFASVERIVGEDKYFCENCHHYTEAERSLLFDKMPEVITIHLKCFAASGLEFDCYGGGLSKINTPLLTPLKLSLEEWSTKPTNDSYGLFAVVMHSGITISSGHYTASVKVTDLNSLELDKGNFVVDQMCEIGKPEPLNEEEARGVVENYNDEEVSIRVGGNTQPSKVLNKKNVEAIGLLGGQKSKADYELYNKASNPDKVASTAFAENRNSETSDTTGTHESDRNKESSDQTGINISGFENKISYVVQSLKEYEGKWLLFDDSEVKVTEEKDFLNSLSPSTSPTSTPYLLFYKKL
USP1/UAF1, sequence (Q8TAF3 whole entry partner): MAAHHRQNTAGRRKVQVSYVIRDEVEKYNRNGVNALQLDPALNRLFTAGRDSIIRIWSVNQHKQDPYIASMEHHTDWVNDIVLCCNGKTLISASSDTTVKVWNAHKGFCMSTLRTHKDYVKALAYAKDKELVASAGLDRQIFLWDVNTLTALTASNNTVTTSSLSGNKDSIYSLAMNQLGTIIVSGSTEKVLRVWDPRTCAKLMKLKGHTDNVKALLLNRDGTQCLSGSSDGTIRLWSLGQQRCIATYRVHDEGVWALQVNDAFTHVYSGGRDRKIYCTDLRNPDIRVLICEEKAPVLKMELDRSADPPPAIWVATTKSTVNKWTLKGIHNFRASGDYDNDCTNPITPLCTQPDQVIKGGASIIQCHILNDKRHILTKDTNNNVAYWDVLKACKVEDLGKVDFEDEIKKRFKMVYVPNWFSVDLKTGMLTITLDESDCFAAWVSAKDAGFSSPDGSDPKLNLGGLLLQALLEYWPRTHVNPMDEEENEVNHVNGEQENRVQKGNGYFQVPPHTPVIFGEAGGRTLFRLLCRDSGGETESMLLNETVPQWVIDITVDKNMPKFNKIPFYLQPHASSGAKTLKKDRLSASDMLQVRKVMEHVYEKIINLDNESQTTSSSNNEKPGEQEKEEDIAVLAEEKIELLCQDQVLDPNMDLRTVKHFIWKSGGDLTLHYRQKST
Method: Test-1: USP1/UAF 1 Assay:
Deubiquitinase activity of USP1/UAF1 was monitored in a fluorometric assay using ubiquitin-rhodamine110 as substrate. Briefly, enzymatic reactions were conducted in an assay buffer composed of 50 mM HEPES, pH 7.8, 0.5 mM EDTA, 100 mM NaCl, 1 mM TCEP, 0.1 mg/mL BSA, and 0.01% Tween-20 that contained 1 nM USP1/UAF1. Compounds were tested at desired concentrations. The plates were incubated for 15 min to attain equilibrium, and then the enzymatic reaction was initiated by dispensing 150 nM Ub-Rho solution. Fluorescence measurement was performed in a high throughput CCD imager, where kinetic measurements of rhodamine fluorescence were acquired using a 480 nm excitation/540 nm emission filter set. The change in fluorescence intensity over a 5-minute reaction period (typically associated with less than 10% substrate conversion) was normalized against no-inhibitor and no-enzyme controls and the resulting percent inhibition data were fitted to a sigmoidal dose response using a four-parameter Hill equation. Data was be analysed and percent inhibition and/or IC50 for each test compound is calculated accordingly.

inhibition at 1 µM [2] [%]	SMILES	other results
50 to 75	COc1ccc(-c2nc3c(c(NCc4ccc(-c5nc(C(F)(F)F)cn5C)cc4)n2)CCC3)c(OC)c1 [Example 68, 2-(2,4-dimethoxyphenyl)-N-(4-(1-methyl-4-(trifluoromethyl)-1H-imidazol-2-yl)benzyl)-6,7-dihydro-5H-cyclopenta[d]pyrimidin-4-amine]	–
50 to 75	COc1cc(-c2nc(NCc3ccc(-c4nc(C(F)(F)F)cn4C)cc3)c3[nH]cnc3n2)ccc1F [Example 52, 2-(4-fluoro-3-methoxyphenyl)-N-(4-(1-methyl-4-(trifluoromethyl)-1H-imidazol-2-yl)benzyl)-7H-purin-6-amine]	–
50 to 75	COc1ccc(-c2nc3c(c(NCc4ccc(-c5nc(C(F)(F)F)cn5C)cc4)n2)CCC3)c(OC)n1 [Example 65, 2-(2,6-dimethoxypyridin-3-yl)-N-(4-(1-methyl-4-(trifluoromethyl)-1H-imidazol-2-yl)benzyl)-6,7-dihydro-5H-cyclopenta[d]pyrimidin-4-amine]	–
50 to 75	CC(=O)Nc1cccc(-c2nc3c(c(NCc4ccc(-c5nc(C(F)(F)F)cn5C)cc4)n2)CCC3)c1 [Example 59, N-(3-(4-((4-(1-methyl-4-(trifluoromethyl)-1H-imidazol-2-yl)benzyl)amino)-6,7-dihydro-5H-cyclopenta[d]pyrimidin-2-yl)phenyl)acetamide]	–
50 to 75	Cn1cc(C(F)(F)F)nc1-c1ccc(CNc2nc(-c3cc(Cl)ccc3F)nc3c2CCC3)cc1 [Example 61, 2-(5-chloro-2-fluorophenyl)-N-(4-(1-methyl-4-(trifluoromethyl)-1H-imidazol-2-yl)benzyl)-6,7-dihydro-5H-cyclopenta[d]pyrimidin-4-amine]	–
50 to 75	COc1ccc(OC)c(-c2nc3c(c(NCc4ccc(-c5nc(C(F)(F)F)cn5C)cc4)n2)CCC3)c1 [Example 66, 2-(2,5-dimethoxyphenyl)-N-(4-(1-methyl-4-(trifluoromethyl)-1H-imidazol-2-yl)benzyl)-6,7-dihydro-5H-cyclopenta[d]pyrimidin-4-amine]	–
50 to 75	Cn1cc(C(F)(F)F)nc1-c1ccc(CNc2nc(-c3cccc(C(N)=O)c3)nc3c2CCC3)cc1 [Example 72, 3-(4-((4-(1-methyl-4-(trifluoromethyl)-1H-imidazol-2-yl)benzyl)amino)-6,7-dihydro-5H-cyclopenta[d]pyrimidin-2-yl)benzamide]	–
50 to 75	Cn1cc(C(F)(F)F)nc1-c1ccc(CNc2nc(-c3ccc(C(F)(F)F)cc3)nc3nc[nH]c23)cc1 [Example 57, N-(4-(1-methyl-4-(trifluoromethyl)-1H-imidazol-2-yl)benzyl)-2-(4-(trifluoromethyl)phenyl)-7H-purin-6-amine]	–
50 to 75	Cn1cc(C(F)(F)F)nc1-c1ccc(CNc2nc(-c3ccc(F)c(C#N)c3)nc3c2CCC3)cc1 [Example 60, 2-fluoro-5-(4-((4-(1-methyl-4-(trifluoromethyl)-1H-imidazol-2-yl)benzyl)amino)-6,7-dihydro-5H-cyclopenta[d]pyrimidin-2-yl)benzonitrile]	–
50 to 75	COc1ccc(-c2nc3c(c(NCc4ccc(-c5nc(C(F)(F)F)cn5C)cc4)n2)CCC3)cc1OC [Example 69, 2-(3,4-dimethoxyphenyl)-N-(4-(1-methyl-4-(trifluoromethyl)-1H-imidazol-2-yl)benzyl)-6,7-dihydro-5H-cyclopenta[d]pyrimidin-4-amine]	–
50 to 75	Cn1cc(C(F)(F)F)nc1-c1ccc(CNc2nc(-c3cc(F)cc(F)c3F)nc3c2CCC3)cc1 [Example 74, N-(4-(1-methyl-4-(trifluoromethyl)-1H-imidazol-2-yl)benzyl)-2-(2,3,5-trifluorophenyl)-6,7-dihydro-5H-cyclopenta[d]pyrimidin-4-amine]	–
50 to 75	Cn1cc(C(F)(F)F)nc1-c1ccc(CNc2nc(-c3cccc(F)c3C(F)(F)F)nc3nc[nH]c23)cc1 [Example 54, 2-(3-fluoro-2-(trifluoromethyl)phenyl)-N-(4-(1-methyl-4-(trifluoromethyl)-1H-imidazol-2-yl)benzyl)-7H-purin-6-amine]	–
50 to 75	Cn1cc(C(F)(F)F)nc1-c1ccc(CNc2nc(-c3cccc(C(N)=O)c3)nc3nc[nH]c23)cc1 [Example 55, 3-(6-((4-(1-methyl-4-(trifluoromethyl)-1H-imidazol-2-yl)benzyl)amino)-7H-purin-2-yl)benzamide]	–

Second part, the molecule before the results:

SMILES	inhibition at 1 µM [2] [%]	other results
COc1ncnc(C2CC2)c1-c1nc(NCc2ccc(-c3nc(C(F)(F)F)cn3C)cc2)c2ncn(C3CCCCO3)c2n1 (centres unmarked) [Example 19, 2-(4-cyclopropyl-6-methoxypyrimidin-5-yl)-N-(4-(1-methyl-4-(trifluoromethyl)-1H-imidazol-2-yl)benzyl)-9-(tetrahydro-2H-pyran-2-yl)-9H-purin-6-amine]	50 to 75	inhibition at 10 µM ([1]; @10 μM): 75 to 100%
COc1ncnc(C2CC2)c1-c1nc(NCc2ccc(-c3nc(C(F)(F)F)cn3C(C)C)cc2)c2cccn2n1 [Example 22, 2-(4-cyclopropyl-6-methoxypyrimidin-5-yl)-N-(4-(1-isopropyl-4-(trifluoromethyl)-1H-imidazol-2-yl)benzyl)pyrrolo[2,1-f][1,2,4]triazin-4-amine]	–	IC50 [1]: 50 to 100 nM; IC50 [2]: < 50 nM
COc1cccc(-c2nc(NCc3ccc(-c4nc(C(F)(F)F)cn4C)cc3)c3[nH]cnc3n2)c1F [Example 48, 2-(2-fluoro-3-methoxyphenyl)-N-(4-(1-methyl-4-(trifluoromethyl)-1H-imidazol-2-yl)benzyl)-7H-purin-6-amine]	50 to 75	–
Cn1cc(C(F)(F)F)nc1-c1ccc(CNc2nc(-c3ccc(F)cc3F)nc3nc[nH]c23)cc1 [Example 40, 2-(2,4-difluorophenyl)-N-(4-(1-methyl-4-(trifluoromethyl)-1H-imidazol-2-yl)benzyl)-7H-purin-6-amine]	50 to 75	–
CC(C)c1ccccc1-c1nc(NCc2ccc(-c3nc(C(F)(F)F)cn3C)cc2)c2ncn(C3CCCCO3)c2n1 (centres unmarked) [Example 18, 2-(2-isopropylphenyl)-N-(4-(1-methyl-4-(trifluoromethyl)-1H-imidazol-2-yl)benzyl)-9-(tetrahydro-2H-pyran-2-yl)-9H-purin-6-amine]	–	Biochemical assay % inhibition @1 μM ([2]; @1 μM): B+++
Cn1cc(C(F)(F)F)nc1-c1ccc(CNc2nc(-c3cccc(OC(F)(F)F)c3)nc3nc[nH]c23)cc1 [Example 46, N-(4-(1-methyl-4-(trifluoromethyl)-1H-imidazol-2-yl)benzyl)-2-(3-(trifluoromethoxy)phenyl)-7H-purin-6-amine]	50 to 75	–
Cn1cc(C(F)(F)F)nc1-c1ccc(CNc2nc(-c3cc(C(F)(F)F)ccc3F)nc3nc[nH]c23)cc1 [Example 44, 2-(2-fluoro-5-(trifluoromethyl)phenyl)-N-(4-(1-methyl-4-(trifluoromethyl)-1H-imidazol-2-yl)benzyl)-7H-purin-6-amine]	50 to 75	–
CC(C)c1ccccc1-c1nc(NCc2ccc(-c3nc(C(F)(F)F)cn3C)cc2)c2[nH]cnc2n1 [Example 15, 2-(2-isopropylphenyl)-N-(4-(1-methyl-4-(trifluoromethyl)-1H-imidazo-2-yl)benzyl)-7H-purin-6-amine]	–	IC50 [2]: < 50 nM
CC(C)c1ccccc1-c1nc2c(c(NCc3ccc(-c4nc(C(F)(F)F)cn4C)cc3)c1C#N)CCC2 [Example 20, 2-(2-isopropylphenyl)-4-((4-(1-methyl-4-(trifluoromethyl)-1H-imidazol-2-yl)benzyl)amino)-6,7-dihydro-5H-cyclopenta[b]pyridine-3-carbonitrile]	–	IC50 [2]: 100 to 1000 nM
COc1cccc(F)c1-c1nc(NCc2ccc(-c3nc(C(F)(F)F)cn3C)cc2)c2[nH]cnc2n1 [Example 30, 2-(2-fluoro-6-methoxyphenyl)-N-(4-(1-methyl-4-(trifluoromethyl)-1H-imidazol-2-yl)benzyl)-7H-purin-6-amine]	–	inhibition at 10 µM ([2]; read-out: Biochemical assay % inhibition @10 μM): > 75%
Cc1cccc(-c2nc(NCc3ccc(-c4nc(C(F)(F)F)cn4C)cc3)c3[nH]cnc3n2)c1Cl [Example 38, 2-(2-chloro-3-methylphenyl)-N-(4-(1-methyl-4-(trifluoromethyl)-1H-imidazol-2-yl)benzyl)-7H-purin-6-amine]	50 to 75	–
COc1ccc(-c2nc(NCc3ccc(-c4nc(C(F)(F)F)cn4C)cc3)c3[nH]cnc3n2)cc1OC [Example 51, 2-(3,4-dimethoxyphenyl)-N-(4-(1-methyl-4-(trifluoromethyl)-1H-imidazol-2-yl)benzyl)-7H-purin-6-amine]	50 to 75	–
CC(C)c1ccccc1-c1nc(NCc2ccc(-c3nc(C(F)(F)F)cn3C)cc2)c2cccn2n1 [Example 5, 2-(2-isopropylphenyl)-N-(4-(1-methyl-4-(trifluoromethyl)-1H-imidazol-2-yl)benzyl)pyrrolo[2,1-f][1,2,4]triazin-4-amine]	–	IC50 [1]: ≥ 1000 nM; IC50 [2]: < 50 nM
